Reference: PubChem BioAssay (NCI)
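Compound exposure: 48 hours, 5 concentrations, 96-well plates. GI50 = concentration required for 50% inhibition of growth. At the TGI there is no net growth.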

Legend:
Assay in all cases: NCI tumour cell line growth inhibition, 48 h
MOLT-4 leukemia = test system: MOLT-4 leukemia
OVCAR-5 ovarian = test system: OVCAR-5 ovarian
HS 578T breast = test system: HS 578T breast
SNB-75 CNS = test system: SNB-75 CNS
NCI-H460 lung = test system: NCI-H460 lung
MDA-MB-231 breast = test system: MDA-MB-231 breast
NCI-H522 lung = test system: NCI-H522 lung
SF-295 CNS = test system: SF-295 CNS
SW-620 colon = test system: SW-620 colon
ACHN renal = test system: ACHN renal

| SMILES | GI50 (MOLT-4 leukemia) | TGI (MOLT-4 leukemia) | GI50 (OVCAR-5 ovarian) | TGI (OVCAR-5 ovarian) | GI50 (HS 578T breast) | TGI (HS 578T breast) | GI50 (SNB-75 CNS) | TGI (SNB-75 CNS) | GI50 (NCI-H460 lung) | TGI (NCI-H460 lung) | GI50 (MDA-MB-231 breast) | TGI (MDA-MB-231 breast) | GI50 (NCI-H522 lung) | TGI (NCI-H522 lung) | GI50 (SF-295 CNS) | TGI (SF-295 CNS) | GI50 (SW-620 colon) | TGI (SW-620 colon) | GI50 (ACHN renal) | TGI (ACHN renal) |
| --- | --- | --- | --- | --- | --- | --- | --- | --- | --- | --- | --- | --- | --- | --- | --- | --- | --- | --- | --- | --- |
| CSc1nc2c(c(=O)n1C)C(c1ccccc1)C1=C(N2)/C(=C/c2ccccc2)CCC1 (configuration not stated) | 4900 nM | > 100000 nM | 71700 nM | > 100000 nM | 10200 nM | 93800 nM | 11300 nM | 29700 nM | 9870 nM | > 100000 nM | 17400 nM | > 100000 nM | 5930 nM | > 100000 nM | 4670 nM | 34000 nM | 2530 nM | 6810 nM | 3560 nM | 50500 nM |
| CC/C=C\C[C@H]1C/C=C2/C(=O)C(Cl)=C[C@@H]2C/C=C\CCCC(=O)O1 | 329 nM | 2200 nM | 592 nM | 1840 nM | 698 nM | 25000 nM | 1190 nM | 5390 nM | 545 nM | 1890 nM | 733 nM | 4610 nM | 156 nM | 556 nM | 705 nM | 2260 nM | 99.5 nM | 596 nM | 300 nM | 799 nM |
| COc1ccc2c(c1)-c1c(c3cc(OC)ccc3n(CCN(C)C)c1=O)C2=O | 174 nM | 953 nM | 3140 nM | 12700 nM | 1700 nM | 7810 nM | 1360 nM | 7490 nM | 341 nM | 2090 nM | 1540 nM | 8070 nM | 84.3 nM | 590 nM | 714 nM | 2990 nM | 208 nM | 2950 nM | 352 nM | 7070 nM |
| CCS(=O)(=O)c1ccc(OC)c(Nc2ncc(-c3cccc(F)c3)o2)c1 | > 25000 nM | > 25000 nM | > 25000 nM | > 25000 nM | 2500 nM | > 22300 nM | > 10600 nM | > 25000 nM | > 25000 nM | > 25000 nM | > 25000 nM | > 25000 nM | > 25000 nM | > 25000 nM | > 25000 nM | > 25000 nM | > 25000 nM | > 25000 nM | > 25000 nM | > 25000 nM |
| CN1CCN(c2ccc(NC3=CC(=O)c4ncncc4C3=O)cc2)CC1 | 289 nM | – | 285 nM | 801 nM | 1740 nM | 6290 nM | 1700 nM | 3110 nM | 354 nM | 1220 nM | 250 nM | 766 nM | 597 nM | 1720 nM | 511 nM | 1660 nM | 336 nM | 1270 nM | 228 nM | 520 nM |
| O=C(NCCNCCO)c1ccc(Nc2nc3ccccc3c3occc23)cc1 | 4770 nM | 15100 nM | 10900 nM | 23200 nM | 16100 nM | 36700 nM | 9260 nM | 27200 nM | 28500 nM | > 100000 nM | 3120 nM | 16200 nM | 14300 nM | 35400 nM | 14100 nM | 29800 nM | 21100 nM | 43100 nM | 14200 nM | 27300 nM |
| COc1cnccc1Nc1nc(-c2nn(Cc3c(F)cc(OCCO)cc3F)c3ccccc23)ncc1OC | 1550 nM | > 100000 nM | 5130 nM | 24500 nM | 9080 nM | 26300 nM | 3760 nM | 18400 nM | 2060 nM | 10600 nM | 1530 nM | 4960 nM | 1820 nM | 8550 nM | 7260 nM | 24900 nM | 1990 nM | 7400 nM | 11900 nM | 30500 nM |
| COc1cc(-c2ccc[nH]2)[nH]c1/C=C1\N=C(C)C(CC(=O)OCC(C)(C)C)=C1C | 242 nM | 1320 nM | 501 nM | 2310 nM | 256 nM | 1910 nM | 228 nM | 903 nM | 137 nM | 1350 nM | 104 nM | 1530 nM | 230 nM | 1510 nM | 171 nM | 510 nM | 192 nM | 1480 nM | 287 nM | 965 nM |
| CN(C)c1ccc2[nH]c3c(C(N)=O)cc(=O)c(=O)c=3oc2c1 | 861 nM | 8530 nM | 3360 nM | 17200 nM | 973 nM | 8310 nM | 2500 nM | 9190 nM | 2570 nM | > 100000 nM | 1700 nM | 8670 nM | 687 nM | 8240 nM | 3220 nM | > 100000 nM | 2020 nM | > 100000 nM | 767 nM | 8980 nM |
| COc1ccc2c(c1)C(=O)c1c-2n(CCCN(C)C)c(=O)c2cc([N+](=O)[O-])ccc12 | < 10 nM | 282 nM | 23.5 nM | 394 nM | 3040 nM | 21300 nM | < 10 nM | 2740 nM | < 10 nM | 234 nM | 1080 nM | 2830 nM | < 10 nM | 898 nM | < 10 nM | < 18.8 nM | < 10 nM | 1340 nM | < 10 nM | 103 nM |
| O=C1NC(=NCCc2ccc(Br)cc2)S/C1=C\c1ccc2ncccc2c1 | 19700 nM | > 25000 nM | > 25000 nM | > 25000 nM | 11000 nM | > 25000 nM | > 25000 nM | > 25000 nM | > 25000 nM | > 25000 nM | > 25000 nM | > 25000 nM | 12900 nM | > 25000 nM | > 23200 nM | > 25000 nM | > 25000 nM | > 25000 nM | > 25000 nM | > 25000 nM |
| C[C@]12CCC(=O)C[C@@H]1CC[C@@H]1[C@@H]2CC[C@]2(C)[C@@H](OC(=O)N(CCCl)N=O)CC[C@@H]12 | 145 nM | > 41600 nM | 6310 nM | 22400 nM | 2130 nM | 16900 nM | 507 nM | 13300 nM | 60 nM | 2990 nM | 9480 nM | 24400 nM | 2480 nM | 20400 nM | 133 nM | > 45400 nM | 1110 nM | 19000 nM | 321 nM | 11700 nM |
| CCN1C(=O)N(CC)C2C1N=C(SC)N2/N=C/C=C/c1ccccc1OC (configuration not stated) | 457 nM | > 46100 nM | 630 nM | > 54400 nM | 422 nM | > 56400 nM | 363 nM | 52500 nM | 341 nM | > 34300 nM | 348 nM | 10800 nM | 308 nM | – | 358 nM | > 37400 nM | 412 nM | > 100000 nM | 724 nM | > 49300 nM |
| COc1ccc(C(O)c2ccccn2)cc1 (configuration not stated) | – | > 100000 nM | – | > 100000 nM | – | > 100000 nM | – | > 100000 nM | – | > 100000 nM | – | > 100000 nM | – | > 100000 nM | – | > 100000 nM | – | > 100000 nM | – | > 100000 nM |
| COc1cc(C(=O)O[C@H](C(=O)NCCCCNC(=O)[C@@H](OC(=O)c2cc(OC)cc3c(C)cccc23)[C@]2(C)CO2)[C@]2(C)CO2)c2cccc(C)c2c1 | < 10 nM | 676 nM | 257 nM | 1050 nM | 479 nM | > 100000 nM | 114 nM | 373 nM | < 35.4 nM | 228 nM | 1850 nM | 5480 nM | 20.7 nM | 10900 nM | 122 nM | 672 nM | < 11.1 nM | – | < 10 nM | < 10 nM |
